Laboratory results published in patent US20100152219A1, “PYRAZOLE DERIVATIVES AS INHIBITORS OF RECEPTOR TYROSINE KINASES” (ASTRAZENECA R&D, priority 2003, published 2010).
pIC50: −log10 of the molar value.

molecular target: T1, human TrkB kinase (Homo sapiens, UniProt Q16620); assay: TrkB Assay Format (HTRF kinase assay); format: biochemical; settings: Trk inhibitory activity in the in-vitro TrkB HTRF assay
T1 construct: The intracellular domain of a HIS-tagged human TrkB kinase; His tag; made in house; host or cells: Sf9 insect cells
T1 sequence (Q16620 455-822 limits assumed): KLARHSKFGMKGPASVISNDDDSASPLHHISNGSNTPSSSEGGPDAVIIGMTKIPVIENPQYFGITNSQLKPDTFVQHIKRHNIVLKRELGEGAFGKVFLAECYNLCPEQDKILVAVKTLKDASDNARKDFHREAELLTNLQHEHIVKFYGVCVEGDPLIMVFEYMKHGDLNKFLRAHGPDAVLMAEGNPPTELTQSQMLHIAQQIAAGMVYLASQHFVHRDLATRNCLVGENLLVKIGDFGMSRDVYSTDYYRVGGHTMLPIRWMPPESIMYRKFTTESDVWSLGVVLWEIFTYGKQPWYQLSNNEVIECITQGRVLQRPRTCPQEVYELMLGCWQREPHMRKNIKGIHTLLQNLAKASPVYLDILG
Protocol: TrkB kinase activity is being measured against its ability to phosphorylate synthetic tyrosine residues within a generic polypeptide substrate using homogenous time-resolved fluorescence (HTRF) technology. The intracellular domain of a HIS-tagged human TrkB kinase was expressed in SF9 cells and purified using standard nickel column chromatography. After the kinase is incubated with a biotinylated substrate and adenosine triphosphate (ATP) for 50 minutes at room temperature, the kinase reaction is stopped by the addition of 60 mM ethylenediaminetetraacetic acid (EDTA). The reaction is performed in 384 well microtitre plates and reaction products are detected with the addition of strepavidin-linked and phosphotyrosine-specific antibodies using the Tecan Ultra Evolution Microplate Fluometer after an additional 3-hour incubation at room temperature.

Row | pIC50 | Structure (SMILES)
1 | 7.23 | OCC[C@H](Nc1nc(Nc2cc(C3CC3)[nH]n2)c2sccc2n1)c1ccc(F)cc1 [Example 64, (3S)-3-({4-[(5-Cyclopropyl-1H-pyrazol-3-yl)amino]thieno[3,2-d]pyrimidin-2-yl}amino)-3-(4-fluorophenyl)propan-1-ol]
2 | 7.06 | COc1ccc2nc(N[C@@H](CO)c3ccc(F)cc3)nc(Nc3cc(C4CC4)[nH]n3)c2c1 [Example 80, (2R)-2-({4-[(5-Cyclopropyl-1H-pyrazol-3-yl)amino]-6-methoxyquinazolin-2-yl}amino)-2-(4-fluorophenyl)ethanol]
3 | 7.17 | C[C@H](Nc1nccc(Nc2cc(C3CC3)n[nH]2)n1)c1ccc(F)cc1 [Example 42, N^4-(3-Cyclopropyl-1H-pyrazol-5-yl)-N^2-[(1S)-1-(4-fluorophenyl)ethyl]pyrimidine-2,4-diamine]
